Test system: hypertensive subjects
Experiment: Adverse events (TEAEs, SAEs, AESI, study drug discontinuation, dose modification);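 further: counts of spontaneously reported adverse events in the Safety Analysis Set, subjects grouped by treatment actually received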
Type: in vivo, human
Text: In analyses performed on the Safety Analysis Set, subjects will be analyzed according to their actual treatment received.

Structure (SMILES): CC(=O)N[C@H]1CC[C@H](NC(=O)CN2CCN(c3nncc(-c4ccc(C)cc4)n3)CC2)CC1 [Compound A HBr]
- Dose titration: Hyperkalemia, subjects n (%) (100mg QD Pooled (N 60)): 2 (3.3%)
- Dose titration: Hyponatremia, subjects n (%) (100mg QD Pooled (N 60)): 1 (1.7%)
- Dose titration: Other possibly related, subjects n (%) (100mg QD Pooled (N 60)): 0
- Dose titration: Other unrelated, subjects n (%) (100mg QD Pooled (N 60)): 0
- Study drug discontinuation: Hyperkalemia, subjects n (%) (100mg QD Pooled (N 60)): 2 (3.3%)
- Study drug discontinuation: Hyponatremia, subjects n (%) (100mg QD Pooled (N 60)): 1 (1.7%)
- Study drug discontinuation: Hypotension, subjects n (%) (100mg QD Pooled (N 60)): 2 (3.3%)
- Study drug discontinuation: Other possibly related, subjects n (%) (100mg QD Pooled (N 60)): 1 (1.7%)
- Study drug discontinuation: Other unrelated, subjects n (%) (100mg QD Pooled (N 60)): 4 (6.7%)
- Subjects with TEAE resulting in dose modification (Part 1): 24
- Dose titration: Hyperkalemia, subjects n (%) (Part 1 100mg QD (N 29)): 1 (3.4%)
- Dose titration: Hyponatremia, subjects n (%) (Part 1 100mg QD (N 29)): 0
- Dose titration: Other possibly related, subjects n (%) (Part 1 100mg QD (N 29)): 0
- Dose titration: Other unrelated, subjects n (%) (Part 1 100mg QD (N 29)): 0
- Study drug discontinuation: Hyperkalemia, subjects n (%) (Part 1 100mg QD (N 29)): 2 (6.9%)
- Study drug discontinuation: Hyponatremia, subjects n (%) (Part 1 100mg QD (N 29)): 0
- Study drug discontinuation: Hypotension, subjects n (%) (Part 1 100mg QD (N 29)): 1 (3.4%)
- Study drug discontinuation: Other possibly related, subjects n (%) (Part 1 100mg QD (N 29)): 1 (3.4%)
- Study drug discontinuation: Other unrelated, subjects n (%) (Part 1 100mg QD (N 29)): 3 (6.0%)
- On-treatment TEAE: Blood and lymphatic system disorders (Part 1, 12.5 mg BID (N = 22)): 0 n (%)
- On-treatment TEAE: Blood and lymphatic system disorders, Mild (Part 1, 12.5 mg BID (N = 22)): 0 n (%)
- On-treatment TEAE: Blood creatinine increased (Part 1, 12.5 mg BID (N = 22)): 0 n (%)
- On-treatment TEAE: Blood creatinine increased, Mild (Part 1, 12.5 mg BID (N = 22)): 0 n (%)
- On-treatment TEAE: Cardiac disorders (Part 1, 12.5 mg BID (N = 22)): 1 (4.5) n (%)
- On-treatment TEAE: Cortisol decreased (Part 1, 12.5 mg BID (N = 22)): 2 (9.1) n (%)
- On-treatment TEAE: Cortisol decreased, Mild (Part 1, 12.5 mg BID (N = 22)): 2 (9.1) n (%)
- On-treatment TEAE: Dizziness (Part 1, 12.5 mg BID (N = 22)): 0 n (%)
- On-treatment TEAE: Gastrointestinal disorders (Part 1, 12.5 mg BID (N = 22)): 0 n (%)
- On-treatment TEAE: Gastrointestinal disorders, Mild (Part 1, 12.5 mg BID (N = 22)): 0 n (%)
- On-treatment TEAE: General disorders and administration site conditions (Part 1, 12.5 mg BID (N = 22)): 2 (9.1) n (%)
- On-treatment TEAE: General disorders and administration site conditions, Mild (Part 1, 12.5 mg BID (N = 22)): 1 (4.5) n (%)
- On-treatment TEAE: Glomerular filtration rate decreased (Part 1, 12.5 mg BID (N = 22)): 3 (13.6) n (%)
- On-treatment TEAE: Glomerular filtration rate decreased, Mild (Part 1, 12.5 mg BID (N = 22)): 3 (13.6) n (%)
- On-treatment TEAE: Headache (Part 1, 12.5 mg BID (N = 22)): 0 n (%)
- On-treatment TEAE: Headache, Mild (Part 1, 12.5 mg BID (N = 22)): 0 n (%)
- On-treatment TEAE: Hyperkalaemia (Part 1, 12.5 mg BID (N = 22)): 5 (22.7) n (%)
- On-treatment TEAE: Hyperkalaemia, Mild (Part 1, 12.5 mg BID (N = 22)): 4 (18.2) n (%)
- On-treatment TEAE: Hyperkalaemia, Moderate (Part 1, 12.5 mg BID (N = 22)): 1 (4.5) n (%)
- On-treatment TEAE: Hyperkalaemia, Severe (Part 1, 12.5 mg BID (N = 22)): 0 n (%)
- On-treatment TEAE: Hypertension (Part 1, 12.5 mg BID (N = 22)): 0 n (%)
- On-treatment TEAE: Hypertension, Moderate (Part 1, 12.5 mg BID (N = 22)): 0 n (%)
- On-treatment TEAE: Infections and infestations (Part 1, 12.5 mg BID (N = 22)): 1 (4.5) n (%)
- On-treatment TEAE: Infections and infestations, Mild (Part 1, 12.5 mg BID (N = 22)): 0 n (%)
- On-treatment TEAE: Infections and infestations, Moderate (Part 1, 12.5 mg BID (N = 22)): 1 (4.5) n (%)
- On-treatment TEAE: Investigations (Part 1, 12.5 mg BID (N = 22)): 6 (27.3) n (%)
- On-treatment TEAE: Investigations, Mild (Part 1, 12.5 mg BID (N = 22)): 5 (22.7) n (%)
- On-treatment TEAE: Investigations, Moderate (Part 1, 12.5 mg BID (N = 22)): 1 (4.5) n (%)
- On-treatment TEAE: Metabolism and nutrition disorders (Part 1, 12.5 mg BID (N = 22)): 5 (22.7) n (%)
- On-treatment TEAE: Metabolism and nutrition disorders, Mild (Part 1, 12.5 mg BID (N = 22)): 4 (18.2) n (%)
- On-treatment TEAE: Metabolism and nutrition disorders, Moderate (Part 1, 12.5 mg BID (N = 22)): 1 (4.5) n (%)
- On-treatment TEAE: Nervous system disorders (Part 1, 12.5 mg BID (N = 22)): 1 (4.5) n (%)
- On-treatment TEAE: Nervous system disorders, Mild (Part 1, 12.5 mg BID (N = 22)): 1 (4.5) n (%)
- On-treatment TEAE: Orthostatic hypotension (Part 1, 12.5 mg BID (N = 22)): 1 (4.5) n (%)
- On-treatment TEAE: Orthostatic hypotension, Mild (Part 1, 12.5 mg BID (N = 22)): 1 (4.5) n (%)
- On-treatment TEAE: Psychiatric disorders (Part 1, 12.5 mg BID (N = 22)): 1 (4.5) n (%)
- On-treatment TEAE: Psychiatric disorders, Moderate (Part 1, 12.5 mg BID (N = 22)): 1 (4.5) n (%)
- On-treatment TEAE: Urinary tract infection (Part 1, 12.5 mg BID (N = 22)): 0 n (%)
- On-treatment TEAE: Urinary tract infection, Mild (Part 1, 12.5 mg BID (N = 22)): 0 n (%)
- On-treatment TEAE: Vascular disorders (Part 1, 12.5 mg BID (N = 22)): 2 (9.1) n (%)
- On-treatment TEAE: Vascular disorders, Mild (Part 1, 12.5 mg BID (N = 22)): 2 (9.1) n (%)
- On-treatment TEAE: Vascular disorders, Moderate (Part 1, 12.5 mg BID (N = 22)): 0 n (%)
- On-treatment TEAE: any, Mild (Part 1, 12.5 mg BID (N = 22)): 8 (36.4) n (%)
- On-treatment TEAE: any, Moderate (Part 1, 12.5 mg BID (N = 22)): 5 (22.7) n (%)
- On-treatment TEAE: any, Severe (Part 1, 12.5 mg BID (N = 22)): 0 n (%)
- Subjects with any On-treatment TEAEs leading to withdrawal from study drug (Part 1, 12.5 mg BID (N = 22)): 1 (4.5) n (%)
- TEAE leading to permanent discontinuation from study drug: Activated partial thromboplastin time prolonged (Part 1, 12.5 mg BID (N = 22)): 0 n (%)
- TEAE leading to permanent discontinuation from study drug: Cardiac disorders (Part 1, 12.5 mg BID (N = 22)): 0 n (%)
- TEAE leading to permanent discontinuation from study drug: Coronary artery disease (Part 1, 12.5 mg BID (N = 22)): 0 n (%)
- TEAE leading to permanent discontinuation from study drug: Dizziness (Part 1, 12.5 mg BID (N = 22)): 0 n (%)
- TEAE leading to permanent discontinuation from study drug: Hyperkalaemia (Part 1, 12.5 mg BID (N = 22)): 0 n (%)
- TEAE leading to permanent discontinuation from study drug: Hypertension (Part 1, 12.5 mg BID (N = 22)): 0 n (%)
- TEAE leading to permanent discontinuation from study drug: Hypotension (Part 1, 12.5 mg BID (N = 22)): 0 n (%)
- TEAE leading to permanent discontinuation from study drug: Investigations (Part 1, 12.5 mg BID (N = 22)): 0 n (%)
- TEAE leading to permanent discontinuation from study drug: Metabolism and nutrition disorders (Part 1, 12.5 mg BID (N = 22)): 0 n (%)
- TEAE leading to permanent discontinuation from study drug: Nervous system disorders (Part 1, 12.5 mg BID (N = 22)): 0 n (%)
- TEAE leading to permanent discontinuation from study drug: Orthostatic hypotension (Part 1, 12.5 mg BID (N = 22)): 1 (4.5) n (%)
- TEAE leading to permanent discontinuation from study drug: Vascular disorders (Part 1, 12.5 mg BID (N = 22)): 1 (4.5) n (%)
- On-treatment TEAE: Blood and lymphatic system disorders (Part 1, 12.5 mg QD (N = 23)): 0 n (%)
- On-treatment TEAE: Blood and lymphatic system disorders, Mild (Part 1, 12.5 mg QD (N = 23)): 0 n (%)
- On-treatment TEAE: Blood creatinine increased (Part 1, 12.5 mg QD (N = 23)): 0 n (%)
- On-treatment TEAE: Blood creatinine increased, Mild (Part 1, 12.5 mg QD (N = 23)): 0 n (%)
- On-treatment TEAE: Cardiac disorders (Part 1, 12.5 mg QD (N = 23)): 2 (8.7) n (%)
- On-treatment TEAE: Cortisol decreased (Part 1, 12.5 mg QD (N = 23)): 0 n (%)
- On-treatment TEAE: Cortisol decreased, Mild (Part 1, 12.5 mg QD (N = 23)): 0 n (%)
- On-treatment TEAE: Dizziness (Part 1, 12.5 mg QD (N = 23)): 1 (4.3) n (%)
- On-treatment TEAE: Gastrointestinal disorders (Part 1, 12.5 mg QD (N = 23)): 2 (8.7) n (%)
- On-treatment TEAE: Gastrointestinal disorders, Mild (Part 1, 12.5 mg QD (N = 23)): 1 (4.3) n (%)
- On-treatment TEAE: General disorders and administration site conditions (Part 1, 12.5 mg QD (N = 23)): 1 (4.3) n (%)
- On-treatment TEAE: General disorders and administration site conditions, Mild (Part 1, 12.5 mg QD (N = 23)): 0 n (%)
- On-treatment TEAE: Glomerular filtration rate decreased (Part 1, 12.5 mg QD (N = 23)): 1 (4.3) n (%)
- On-treatment TEAE: Glomerular filtration rate decreased, Mild (Part 1, 12.5 mg QD (N = 23)): 1 (4.3) n (%)
- On-treatment TEAE: Headache (Part 1, 12.5 mg QD (N = 23)): 0 n (%)
- On-treatment TEAE: Headache, Mild (Part 1, 12.5 mg QD (N = 23)): 0 n (%)
- On-treatment TEAE: Hyperkalaemia (Part 1, 12.5 mg QD (N = 23)): 6 (26.1) n (%)
- On-treatment TEAE: Hyperkalaemia, Mild (Part 1, 12.5 mg QD (N = 23)): 4 (17.4) n (%)
- On-treatment TEAE: Hyperkalaemia, Moderate (Part 1, 12.5 mg QD (N = 23)): 1 (4.3) n (%)
- On-treatment TEAE: Hyperkalaemia, Severe (Part 1, 12.5 mg QD (N = 23)): 1 (4.3) n (%)
- On-treatment TEAE: Hypertension (Part 1, 12.5 mg QD (N = 23)): 2 (8.7) n (%)
- On-treatment TEAE: Hypertension, Moderate (Part 1, 12.5 mg QD (N = 23)): 1 (4.3) n (%)
- On-treatment TEAE: Infections and infestations (Part 1, 12.5 mg QD (N = 23)): 3 (13.0) n (%)
- On-treatment TEAE: Infections and infestations, Mild (Part 1, 12.5 mg QD (N = 23)): 3 (13.0) n (%)
